US12263248B2, “Compounds and compositions for intracellular delivery of therapeutic agents” (ModernaTX, Inc., priority 2018, dated 2025)

Columns and labels:
[1] = Particle size and polydispersity index of nanoparticle compositions (Zetasizer Nano ZS); format: physicochemical
Description: A Zetasizer Nano ZS (Malvern Instruments Ltd, Malvern, Worcestershire, UK) can be used to determine the particle size, the polydispersity index (PDI) and the zeta potential of the nanoparticle compositions in 1×PBS in determining particle size and 15 mM PBS in determining zeta potential.

[2] = Encapsulation efficiency of RNA (QUANT-IT RIBOGREEN RNA assay); format: physicochemical
Description: For nanoparticle compositions including an RNA, a QUANT-IT™ RIBOGREEN® RNA assay (Invitrogen Corporation Carlsbad, CA) can be used to evaluate the encapsulation of an RNA by the nanoparticle composition. The samples are diluted to a concentration of approximately […] in a TE buffer solution (10 mM Tris-HCl, 1 mM EDTA, pH 7.5). 50 μL of the diluted samples are transferred to a polystyrene 96 well plate and either 50 μL of TE buffer or 50 μL of a 2% Triton X-100 solution is added to the wells. The plate is incubated at a temperature of 37° C. for 15 minutes. The RIBOGREEN® reagent is diluted 1:100 in TE buffer, and 100 μL of this solution is added to each well. The fluorescence intensity can be measured using a fluorescence plate reader (Wallac Victor 1420 Multilabel Counter; Perkin Elmer, Waltham, MA) at an excitation wavelength of, for example, about 480 nm and an emission wavelength of, for example, about 520 nm. The fluorescence values of the reagent blank are subtracted from that of each of the samples and the percentage of free RNA is determined by dividing the fluorescence intensity of the intact sample (without addition of Triton X-100) by the fluorescence value of the disrupted sample (caused by the addition of Triton X-100).

[3] = test system: luciferase (Luc) mRNA; assay: Luc expression, whole body bioluminescence after intravenous administration to mice; format: in vivo; conditions: for Total Flux 3 hours / Total Flux 6 hours / Total Flux 24 hours: Luc mRNA; for flux at all timepoints measured: 3, 6 and 24 hour, in words; for Fold increase in total body Luc Flux relative to MC3 at 6 h: Table 3A
Description: In order to monitor how effectively various nanoparticle compositions deliver therapeutic and/or prophylactics to targeted cells, different nanoparticle compositions including a particular therapeutic and/or prophylactic (for example, a modified or naturally occurring RNA such as an mRNA) are prepared and administered to rodent populations. Mice are intravenously, intramuscularly, intraarterially, or intratumorally administered a single dose including a nanoparticle composition with a formulation such as those provided in Example 3. In some instances, mice may be made to inhale doses. Dose sizes may range from 0.001 mg/kg to 10 mg/kg, where 10 mg/kg describes a dose including 10 mg of a therapeutic and/or prophylactic in a nanoparticle composition for each 1 kg of body mass of the mouse. A control composition including PBS may also be employed.
Upon administration of nanoparticle compositions to mice, dose delivery profiles, dose responses, and toxicity of particular formulations and doses thereof can be measured by enzyme-linked immunosorbent assays (ELISA), bioluminescent imaging, or other methods. For nanoparticle compositions including mRNA, time courses of protein expression can also be evaluated. Samples collected from the rodents for evaluation may include blood, sera, and tissue (for example, muscle tissue from the site of an intramuscular injection and internal tissue); sample collection may involve sacrifice of the animals.
The efficacy of the nanoparticle compositions presented in Table 1A was evaluated with a bioluminescence study. Formulations were administered intravenously to mice (n=6) at a dosage of 0.5 mg/kg (mpk) and bioluminescence measured at 3, 6, and 24 hour time points. The standard MC3 formulation and, in some instances, a control (e.g., a PBS control) were evaluated for comparison. […] In general, flux decreased as time progressed to less than 10% of the initial flux.
(§1) Whole body and ex vivo organ bioluminescent imaging of mice: CD-1 mice were injected 15 minutes prior to the imaging timepoint intraperitoneally (IP) with 200 μL Xenolight D-luciferin K+ salt, diluted in PBS just prior to use to a concentration of 15 mg/mL. Ex vivo imaging of organs was completed within 25 minutes of luciferin administration. All images were quantified by region of interest for total flux.

[4] = test system: luciferase (Luc) mRNA; assay: Luc expression in liver, lung, spleen and femur 6 hours after intravenous administration; format: in vivo; conditions: mice, 0.5 mpk; for Total Flux Liver / Total Flux Lung / Total Flux Spleen: intravenous; for Flux in the liver / Flux in the spleen: i.v., in words
Description: The efficacy of the nanoparticle compositions presented in Table 1A was further evaluated by measuring the expression of modified luciferase in the liver, lung, spleen, and femur upon administration of a given composition. Formulations were administered intravenously to mice (n=3) at a dosage of 0.5 mpk and bioluminescence measured after 6 hours. The standard MC3 formulation and a PBS control were also tested. […] Flux in the liver was lowest for compositions including Compounds 58, 59, 137, and 141. Flux in the spleen was highest for compositions including Compounds 4, 7, 33, 34, 48, 53, 108, 129, 130, and 148, and lowest for compositions including Compounds 9, 59, 124, and 141.
as §1

[5] = Table 1A, lipid:DSPC:cholesterol:PEG-DMG 50:10:38.5:1.5 mol %
[6] = Table 1B, formulated with hEPO mRNA

Compound | PDI ([1]; Table 1A) | Size (nm) [1, 5] [nm] | PDI [1, 6] | Size (nm) [1, 6] [nm] | EE (%) ([2]; Table 1A) | EE (%) [2, 6] [%] | Total Flux 3 hours ([3]; mice, i.v., 0.5 mg/kg) | Total Flux 6 hours ([3]; mice, i.v., 0.5 mg/kg) | flux at all timepoints measured ([3]; mice, i.v., 0.5 mg/kg) | Total Flux Liver [4] | Total Flux Lung [4] | Total Flux Spleen [4] | Total Flux 24 hours ([3]; mice, i.v., 0.5 mg/kg) | Flux in the liver [4] | Fold increase in total body Luc Flux relative to MC3 at 6 h ([3]; i.v. administration) | Flux in the spleen [4] | 6 h Lipid/MC3 Avg. Luc Expression ([3]; Table 3C, i.v. administration) | Fold increase AUC Lipid/MC3 ([3]; Table 3C, i.v. administration) | AUC (h * p/s) ([3]; Table 3C, i.v. administration, Luc) | total flux at 3 hours ([3]; mice, i.v., 0.5 mg/kg, comparison in words)
CCCCCCCCCOC(=O)CCCCCCCN(CCCCCCCC(=O)OC(CCCCCCCC)CCCCCCCC)CCCC(=O)NC [Compound 239, Heptadecan-9-yl 8-((4-(methylamino)-4-oxobutyl)(8-(nonyloxy)-8-oxooctyl)amino)octanoate] | 0.12 | 55.8 | 0.14 | 71.3 | 90.42 | 82.6 |  |  |  |  |  |  |  |  |  |  |  |  |  | 
CCCCCCCCCOC(=O)CCCCCCCN(CCCCCCCC(=O)OC(CCCCCCCC)CCCCCCCC)CCC(=O)O [Compound 125, 3-((8-(Heptadecan-9-yloxy)-8-oxooctyl)(8-(nonyloxy)-8-oxooctyl)amino)propanoic acid] | 0.16 | 90.9 |  |  | 79.6 |  | 2.44E+05 | 3.16E+05 | significantly lower flux |  |  |  |  |  |  |  |  |  |  | 
CCCCCCCCC(CCCCCCCC)OC(=O)CCCCCCCN(CCO)CCCCCCCCC1CC1CCCCCCCC (centres unmarked) [Compound 47, heptadecan-9-yl 8-((2-hydroxyethyl)(8-(2-octylcyclopropyl)octyl)amino)octanoate] | 0.10 | 80.6 |  |  | 96.40 |  | 6.55E+10 | 5.38E+10 |  | 4.86E+09 | 8.71E+06 | 8.33E+07 | 2.09E+09 |  |  |  |  |  |  | 
CCCCCCCCCOC(=O)CCCCCCCN(CCO)CCCCCCCC(=O)OC(CCC)CCC [Compound 58, heptan-4-yl 8-((2-hydroxyethyl)(8-(nonyloxy)-8-oxooctyl)amino) octanoate] | 0.14 | 130.8 |  |  | 92.54 |  | 5.69E+05 | 7.60E+05 | significantly lower flux | 8.71E+04 | 1.21E+04 | 2.38E+05 | 3.64E+05 | lowest | 0.00007 |  |  |  |  | 
CCCCCCCCC(CCCCCCCC)OC(=O)CCCCCCCN(CCO)CCCC(=O)OCCCCCC [Compound 53, heptadecan-9-yl 8-((4-(hexyloxy)-4-oxobutyl)(2-hydroxyethyl)amino) octanoate] | 0.13 | 125.4 |  |  | 95.8 |  | 1.91E+10 | 2.32E+10 |  | 2.02E+09 | 2.47E+07 | 8.54E+08 | 1.01E+09 |  | 2.11 | highest |  |  |  | 
CCCCCCCCC(CCCCCCCC)OC(=O)CCCCCCCN(CCO)CCCC(=O)OCCCC [Compound 51, heptadecan-9-yl 8-((4-butoxy-4-oxobutyl)(2-hydroxyethyl)amino) octanoate] | 0.17 | 148.8 |  |  | 89.83 |  | 1.34E+08 | 2.80E+08 |  | 2.49E+07 | 3.67E+05 | 2.80E+07 | 6.20E+06 |  | 0.025 |  |  |  |  | 
CCCCCCCCC(CCCCCCCC)OC(=O)CCCCCCCN(CCO)CCCC(=O)OCCCCC [Compound 52, heptadecan-9-yl 8-((2-hydroxyethyl)(4-oxo-4-(pentyloxy)butyl)amino) octanoate] | 0.19 | 130.5 |  |  | 93.25 |  | 2.91E+09 | 4.63E+09 |  | 5.86E+08 | 2.80E+06 | 8.30E+07 | 2.55E+07 |  |  |  |  |  |  | 
CCCCCCCCCOC(=O)CCCCCCCN(CCO)CCCCCCCC(=O)OC(CCCCCC)CCCCCC [Compound 56, nonyl 8-((2-hydroxyethyl)(8-oxo-8-(tridecan-7-yloxy)octyl)amino) octanoate] | 0.17 | 112.1 |  |  | 95.18 |  | 1.27E+10 | 8.06E+09 |  | 1.04E+09 | 4.62E+06 | 1.98E+08 | 2.53E+08 |  | 0.733 |  |  |  |  | 
CCCCCCCCC(CCCCCCCC)OC(=O)CCCCCCCN(CCO)CCCCCCCC(=O)OC1CCC(CCCCC)CC1 (centres unmarked) [Compound 66, Heptadecan-9-yl 8-((2-hydroxyethyl)(8-oxo-8-((4-pentylcyclohexyl)oxy)octyl)amino)octanoate] | 0.120 | 76.7 |  |  | 96.52 |  | 9.66E+10 | 4.577E+10 |  | 5.01E+09 | 4.20E+06 | 2.00E+07 | 5.56E+09 |  | 0.103 |  | 6.28 | 8.20 | 6.76E+11 | highest
CCCCCCCCCOC(=O)CCCCCCCN(CCC#N)CCCCCCCC(=O)OC(CCCCCCCC)CCCCCCCC [Compound 21, Heptadecan-9-yl 8-((2-cyanoethyl)(8-(nonyloxy)-8-oxooctyl)amino) octanoate] |  | 53.5 |  |  | −15.1 |  |  |  |  |  |  |  |  |  |  |  |  |  |  | 
CCCCCCCCCOC(=O)CCCCCCCN(CCCCCCCC(=O)OC(CCCCCCCC)CCCCCCCC)CCCn1ccc(N)nc1=O [Compound 115, Heptadecan-9-yl 8-((3-(4-amino-2-oxopyrimidin-1(2H)-yl)propyl)(8-(nonyloxy)-8-oxooctyl)amino)octanoate] | 0.11 | 64.5 |  |  | 99.7 |  | 2.13E+07 | 2.91E+07 |  |  |  |  |  |  |  |  |  |  |  | 
CCCCCCCCCOC(=O)CCCCCCCN(CCO)CCCCCCCC(=O)OC(CC)CC [Compound 59, nonyl 8-((2-hydroxyethyl)(8-oxo-8-(pentan-3-yloxy)octyl)amino) octanoate] | 0.24 | 237.0 |  |  | 94.44 |  | 2.75E+05 | 2.79E+05 | significantly lower flux | 2.87E+05 | 4.41E+04 | 9.68E+04 | 1.45E+05 | lowest | 0.00003 | lowest |  |  |  | 
